What was measured:
[1] = Solubility test in cyclohexanone (residue after dissolution); format: physicochemical; settings: 1 part by weight in 5 parts by weight of cyclohexanone, 40° C., 3 hours, ultrasonic waves, filtered
Description: (1-2) Solubility Test Method
1 part by weight of sulfonic acid (salt) diol compound was added to 5 parts by weight of cyclohexanone, and dissolution was carried out at 40° C. for 3 hours using ultrasonic waves. A solution thus obtained was filtered, and the presence/absence of a residue after dissolution was checked.

[2] = background statement; cited from earlier work

SMILES | presence/absence of a residue after dissolution [1] | solubility in organic solvents [2]
O=S(=O)([O-])CCN(CCO)CCO.[K+] | a residue was found | –
O=S(=O)(O)CCN(CCO)CCO [N,N-bis(2-hydroxyethyl)-2-aminoethanesulfonic acid] | a residue was found | does not dissolve in organic solvents
O=S(=O)([O-])CCN(CCO)CCO.[Na+] | a residue was found | –
O=S(=O)([O-])CCN(CCO)CCO.[Li+] | a residue was found | –

From patent publication US7737305B2, “Sulfonic acid polyol compound, polyurethane resin, polyurethane resin for magnetic recording medium, and magnetic recording medium” (FUJIFILM Corporation, priority 2007, dated 2010)
